{
  "source": "patent US20160128999A1",
  "about": "(AB SCIENCE, priority 2014, published 2016)",
  "key": {"Hepatoma cell line HepG2": {"test_system": "Hepatoma cell line HepG2", "test": "CellTiter-Blue cell proliferation and viability assay, HepG2", "assay_type": "cell-based", "settings": "Homo sapiens; HepG2, 1% FCS, 72 hours; read-out: IC50 of agent as single agent", "procedure": "(§1) During proliferation assays, all cells were grown in medium containing 1% FCS. […] Treatment was started by the addition of 50 μl of a 2× concentrated drug solution to a final volume of 100 μl. […] After incubating for 72 hours at 37° C., 10 μl of a 1⁄2 dilution of CellTiter-Blue reagent was added to each well and the plates were returned to the incubator for an additional 4 hours. The fluorescence intensity from the CellTiter-Blue reagent is proportional to the number of viable cells and data were recorded (544Ex/590Em) using a POLARstar OMEGA microplate reader (BMG Labteck Sarl). A background control without cells was used as a blank. The positive control of the assay corresponds to the cell proliferation obtained in the absence of drug treatment (100% proliferation). Each sample was done in duplicate, the […] values were transferred to an excel file, the average and standard deviation of the duplicates were calculated and expressed as a percentage of the proliferation obtained in absence of treatment. The results presented are representative of a minimum of 3 experiments."}, "[1]": {"test_system": "Hepatoma cell line PLC-PRF5", "test": "CellTiter-Blue cell proliferation and viability assay, PLC-PRF5", "assay_type": "cell-based", "settings": "Homo sapiens, PLC-PRF-5; PLC-PRF5, 1% FCS, 72 hours; read-out: IC50 of agent as single agent", "procedure": "as §1"}, "[2]": {"settings": "clinically achievable concentration; read-out: Approximate Cmax measured in plasma; cited from earlier work"}, "[3]": {"test_system": "advanced Hepatocellular carcinoma (BCLC stage C)", "settings": "BCLC C patients, first line sorafenib; cited from earlier work"}},
  "data": [
    {"molecule": "CC[C@]1(O)C[C@H]2CN(CCc3c([nH]c4ccccc34)[C@@](C(=O)OC)(c3cc4c(cc3OC)N(C=O)[C@H]3[C@@](O)(C(=O)OC)[C@H](OC(C)=O)[C@]5(CC)C=CCN6CC[C@]43[C@@H]65)C2)C1", "note": "[VINC]", "values": [
      {"measurement": "IC50", "setting": "Hepatoma cell line HepG2", "value": "0.1 to 1", "unit": "µM"},
      {"measurement": "IC50", "setting": "[1]", "value": "0.1 to 1", "unit": "µM"}
    ]},
    {"molecule": "Nc1ccn([C@@H]2O[C@H](CO)[C@@H](O)C2(F)F)c(=O)n1", "note": "[GCB, 2′,2′,-dofluoro-2′,-deoxycytidine]", "values": [
      {"measurement": "IC50", "setting": "Hepatoma cell line HepG2", "value": "> 100", "unit": "µM"}
    ]},
    {"molecule": "COc1cc([C@@H]2c3cc4c(cc3[C@@H](O[C@@H]3O[C@@H]5CO[C@@H](C)O[C@H]5[C@H](O)[C@H]3O)[C@H]3COC(=O)[C@H]23)OCO4)cc(OC)c1O", "note": "[VP-16]", "values": [
      {"measurement": "IC50", "setting": "Hepatoma cell line HepG2", "value": "> 100", "unit": "µM"},
      {"measurement": "Cmax", "setting": "[2]", "value": "~34", "unit": "µM"},
      {"measurement": "IC50", "setting": "[1]", "value": 50, "unit": "µM"}
    ]},
    {"molecule": "Cc1ccc(NC(=O)c2ccc(CN3CCN(C)CC3)cc2)cc1Nc1nc(-c2cccnc2)cs1", "note": "[masitinib mesilate]", "values": [
      {"measurement": "IC50", "setting": "Hepatoma cell line HepG2", "value": "> 5", "unit": "µM"},
      {"measurement": "IC50", "setting": "[1]", "value": "> 5", "unit": "µM"}
    ]},
    {"molecule": "CNC(=O)c1cc(Oc2ccc(NC(=O)Nc3ccc(Cl)c(C(F)(F)F)c3)cc2)ccn1", "note": "[sorafenib]", "values": [
      {"measurement": "median OS", "setting": "[3]", "value": 9.5, "unit": "months"}
    ]},
    {"molecule": "CCc1c2c(nc3ccc(OC(=O)N4CCC(N5CCCCC5)CC4)cc13)-c1cc3c(c(=O)n1C2)COC(=O)[C@]3(O)CC", "note": "[CPT-11]", "values": [
      {"measurement": "IC50", "setting": "Hepatoma cell line HepG2", "value": 100, "unit": "µM"},
      {"measurement": "Cmax", "setting": "[2]", "value": "1 to 10", "unit": "µM"},
      {"measurement": "IC50", "setting": "[1]", "value": 100, "unit": "µM"}
    ]},
    {"molecule": "COc1cccc2c1C(=O)c1c(O)c3c(c(O)c1C2=O)C[C@@](O)(C(=O)CO)C[C@@H]3O[C@H]1C[C@H](N)[C@H](O)[C@H](C)O1", "note": "[DOX]", "values": [
      {"measurement": "IC50", "setting": "Hepatoma cell line HepG2", "value": 5, "unit": "µM"}
    ]}
  ]
}
